20 compounds from PubChem BioAssay AID192 (DTP/NCI, 2004) can be followed below.

Several values for one entry are separate records, joined by “and”; a condition that tells them apart may be missing. Equal entries are not always repeated. Toxic doses and inconclusive results are not listed.

The assay concerns BDF1 mice, B16 melanoma ip, median survival T/C. The assay can be described thus: NCI In Vivo Anticancer Drug Screen. Data for tumor model B16 Melanoma (intraperitoneal) in B6D2F1 (BDF1) mice. To be noted: endpoint: median survival time, higher = longer survival. A digest of the protocol:
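Survival or tumor size is measured after treatment of tumor-bearing mice and normalised to the vehicle-treated control group.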

Setting [1] is: dose: 6.25 mg/kg/injection, schedule: Q01DX009 (ip), vehicle: saline.
Where [2] appears, read: dose: 5.0 mg/kg/injection, schedule: Q01DX009 (ip), vehicle: saline with Tween-80.
Setting [3] is: dose: 100.0 mg/kg/injection, schedule: Q01DX009 (ip), vehicle: saline with Tween-80.
Setting [4] is: dose: 100.0 mg/kg/injection, schedule: Q01DX009 (ip), vehicle: Klucel (hydroxypropylcellulose) (HPC).
The mark [5] stands for this setting: dose: 100.0 mg/kg/injection, schedule: Q04DX003 (ip), vehicle: Klucel (hydroxypropylcellulose) (HPC).
Setting [6] is: dose: 200.0 mg/kg/injection, schedule: Q04DX003 (ip), vehicle: Klucel (hydroxypropylcellulose) (HPC).
Where [7] appears, read: dose: 400.0 mg/kg/injection, schedule: Q04DX003 (ip), vehicle: Klucel (hydroxypropylcellulose) (HPC).
The mark [8] stands for this setting: dose: 200.0 mg/kg/injection, schedule: Q01DX009 (ip), vehicle: saline with Tween-80.
Where [9] appears, read: dose: 12.5 mg/kg/injection, schedule: Q01DX009 (ip), vehicle: Klucel (hydroxypropylcellulose) (HPC).
[10] abbreviates: dose: 25.0 mg/kg/injection, schedule: Q01DX009 (ip), vehicle: Klucel (hydroxypropylcellulose) (HPC).
Setting [11] is: dose: 50.0 mg/kg/injection, schedule: Q01DX009 (ip), vehicle: Klucel (hydroxypropylcellulose) (HPC).

`CCCCCCCCCCCCCCCCCC(=O)OCC(=O)OCC(=O)[C@]1(O)Cc2c(O)c3c(c(O)c2[C@@H](OC2CC(N)C(O)C(C)O2)C1)C(=O)c1c(OC)cccc1C3=O` (stereo partly specified): the T/C runs as follows: (dose: 3.75 mg/kg/injection, schedule: Q01DX001 (ip), vehicle: water) 236 % of control; (dose: 7.5 mg/kg/injection, schedule: Q01DX001 (ip), vehicle: water) 287 % of control and 289 % of control; (dose: 15.0 mg/kg/injection, schedule: Q01DX001 (ip), vehicle: water) 289 % of control; (dose: 30.0 mg/kg/injection, schedule: Q01DX001 (ip), vehicle: water) 154 % of control and 289 % of control (2×).
As for `CC[CH2][Sn]([CH2]CC)([CH2]CC)[O][Sn]([CH2]CC)([CH2]CC)[CH2]CC`, the T/C reads like this: (dose: 0.25 mg/kg/injection, schedule: Q01DX009 (ip), vehicle: saline) 95 % of control; (dose: 0.5 mg/kg/injection, schedule: Q01DX009 (ip), vehicle: saline) 100 % of control; (dose: 0.5 mg/kg/injection, schedule: Q04DX003 (ip), vehicle: saline) 117 % of control; (dose: 1.0 mg/kg/injection, schedule: Q01DX009 (ip), vehicle: saline) 92 % of control; (dose: 1.0 mg/kg/injection, schedule: Q04DX003 (ip), vehicle: saline) 117 % of control.
In the case of `CCCCN(C)N=Nc1ccc(CCCC(=O)OCC)cc1`, the T/C is 97 % of control (dose: 1.56 mg/kg/injection, schedule: Q01DX009 (ip), vehicle: saline); 100 % of control (dose: 3.13 mg/kg/injection, schedule: Q01DX009 (ip), vehicle: saline); 100 % of control under setting [1].
For `CN(C)c1ccc2c(c1)C(Br)c1ccccc1-2` (stereo unspecified), the T/C is, setting by setting: (dose: 6.25 mg/kg/injection, schedule: Q04DX003 (ip), vehicle: Klucel (hydroxypropylcellulose) (HPC)) 102 % of control; (dose: 12.5 mg/kg/injection, schedule: Q04DX003 (ip), vehicle: Klucel (hydroxypropylcellulose) (HPC)) 105 % of control; (dose: 25.0 mg/kg/injection, schedule: Q04DX003 (ip), vehicle: Klucel (hydroxypropylcellulose) (HPC)) 97 % of control.
Take `CCOC(=O)CCC[P+](c1ccccc1)(c1ccccc1)c1ccccc1`: the T/C by setting is: under setting [2], 117 % of control; (dose: 20.0 mg/kg/injection, schedule: Q01DX009 (ip), vehicle: saline with Tween-80) 117 % of control; (dose: 40.0 mg/kg/injection, schedule: Q01DX009 (ip), vehicle: saline with Tween-80) 121 % of control; (dose: 66.0 mg/kg/injection, schedule: Q01DX009 (ip), vehicle: saline with Tween-80) 116 % of control; (dose: 80.0 mg/kg/injection, schedule: Q01DX009 (ip), vehicle: saline with Tween-80) 113 % of control; under setting [3], 100 % of control. Further, the T/C was 112 % of control (dose: 140.0 mg/kg/injection, schedule: Q01DX009 (ip), vehicle: saline with Tween-80); 116 % of control (dose: 160.0 mg/kg/injection, schedule: Q01DX009 (ip), vehicle: saline with Tween-80); 104 % of control (dose: 210.0 mg/kg/injection, schedule: Q01DX009 (ip), vehicle: saline with Tween-80).
`Cc1c(Cl)cccc1NC(=O)c1ccccc1Cl`: the T/C by setting is: under setting [4], 100 % of control; (dose: 200.0 mg/kg/injection, schedule: Q01DX009 (ip), vehicle: Klucel (hydroxypropylcellulose) (HPC)) 93 % of control; (dose: 400.0 mg/kg/injection, schedule: Q01DX009 (ip), vehicle: Klucel (hydroxypropylcellulose) (HPC)) 94 % of control.
With `c1ccc(CN=C(c2ccccc2)c2ccccc2)cc1`, the T/C runs as follows: under setting [5], 100 % of control; under setting [6], 95 % of control; under setting [7], 100 % of control.
As for `NNC(=O)c1nc(N)n[nH]1`, the T/C was 103 % of control (dose: 100.0 mg/kg/injection, schedule: Q04DX003 (ip), vehicle: saline); 104 % of control (dose: 200.0 mg/kg/injection, schedule: Q04DX003 (ip), vehicle: saline); 103 % of control (dose: 400.0 mg/kg/injection, schedule: Q04DX003 (ip), vehicle: saline).
For `COc1ccc([Se][Se]c2ccc(OC)cc2NC(C)=O)c(NC(C)=O)c1`, the T/C is 102 % of control (dose: 50.0 mg/kg/injection, schedule: Q01DX009 (ip), vehicle: saline with Tween-80); 92 % of control under setting [3]; 100 % of control under setting [8].
`Cc1c(Cl)cccc1NC(=O)Nc1ccc(Cl)c(Cl)c1`: the T/C is, setting by setting: under setting [9], 105 % of control; under setting [10], 92 % of control; under setting [11], 91 % of control.
With `COc1ccc(Cl)[n+]([O-])n1`, the T/C by setting is: (dose: 3.13 mg/kg/injection, schedule: Q01DX009 (ip), vehicle: Klucel (hydroxypropylcellulose) (HPC)) 92 % of control; (dose: 6.25 mg/kg/injection, schedule: Q01DX009 (ip), vehicle: Klucel (hydroxypropylcellulose) (HPC)) 95 % of control; under setting [9], 98 % of control; under setting [10], 96 % of control; under setting [11], 98 % of control; under setting [4], 91 % of control.
Take `CC(C)=Cc1ccccc1`: the T/C runs as follows: under setting [3], 95 % of control; (dose: 100.0 mg/kg/injection, schedule: Q04DX003 (ip), vehicle: saline with Tween-80) 95 % of control; under setting [8], 86 % of control; (dose: 200.0 mg/kg/injection, schedule: Q04DX003 (ip), vehicle: saline with Tween-80) 93 % of control.
In the case of `O=C1[O][Hg][c]2cccc3cccc1c23`, the T/C is, setting by setting: (dose: 1.65 mg/kg/injection, schedule: Q04DX003 (ip), vehicle: saline with Tween-80) 106 % of control; (dose: 2.5 mg/kg/injection, schedule: Q01DX009 (ip), vehicle: saline with Tween-80) 88 % of control; (dose: 2.5 mg/kg/injection, schedule: Q04DX003 (ip), vehicle: saline with Tween-80) 100 % of control; under setting [2], 86 % of control; (dose: 10.0 mg/kg/injection, schedule: Q04DX003 (ip), vehicle: saline with Tween-80) 123 % of control.
In the case of `Nc1nc(=S)c2ncn(C3OC(COC(=O)c4ccccc4)C(OC(=O)c4ccccc4)C3OC(=O)c3ccccc3)c2[nH]1` (stereo unspecified), where the note is “dose: 25.0 mg/kg/injection, schedule: Q01DX009 (ip), vehicle: saline with Tween-80”, the T/C was 115 % of control.
As for `CC(N)C(O)c1cccc(O)c1` (stereo unspecified), the T/C reads like this: under setting [1], 94 % of control; (dose: 12.5 mg/kg/injection, schedule: Q01DX009 (ip), vehicle: saline) 102 % of control; (dose: 25.0 mg/kg/injection, schedule: Q01DX009 (ip), vehicle: saline) 105 % of control; (dose: 50.0 mg/kg/injection, schedule: Q01DX009 (ip), vehicle: saline) 100 % of control.
`Cc1cccc(NC(=O)Nc2cccc(Cl)c2)c1C`: the T/C was 107 % of control under setting [5], 100 % of control under setting [6] and 103 % of control under setting [7].
Regarding `COc1cc(OC)c(OC)cc1/C=C\c1ccnc2ccccc12`, the T/C by setting is: (dose: 100.0 mg/kg/injection, schedule: Q01DX009 (ip), vehicle: saline) 97 % of control; (dose: 200.0 mg/kg/injection, schedule: Q01DX009 (ip), vehicle: saline) 105 % of control; (dose: 400.0 mg/kg/injection, schedule: Q01DX009 (ip), vehicle: saline) 107 % of control; (dose: 800.0 mg/kg/injection, schedule: Q01DX009 (ip), vehicle: saline) 102 % of control.
On to `NC1=NC(=O)C(c2ccccc2)O1` (stereo unspecified), for which the T/C was 94 % of control under setting [9], 97 % of control under setting [10] and 102 % of control under setting [4].
`N#Cc1ccccc1N=NNc1ccccc1C#N`: the T/C is 90 % of control (dose: 0.78 mg/kg/injection, schedule: Q01DX009 (ip), vehicle: Klucel (hydroxypropylcellulose) (HPC)); 102 % of control (dose: 1.56 mg/kg/injection, schedule: Q01DX009 (ip), vehicle: Klucel (hydroxypropylcellulose) (HPC)); 96 % of control (dose: 3.12 mg/kg/injection, schedule: Q01DX009 (ip), vehicle: Klucel (hydroxypropylcellulose) (HPC)); 86 % of control under setting [9].
Turning to `CN(C)/C=C(/C#N)C(=O)N1CCCC1`, the T/C (dose: 37.5 mg/kg/injection, schedule: Q04DX003 (ip), vehicle: saline) is 95 % of control; the T/C (dose: 75.0 mg/kg/injection, schedule: Q04DX003 (ip), vehicle: saline) was 88 % of control; the T/C (dose: 150.0 mg/kg/injection, schedule: Q04DX003 (ip), vehicle: saline) was 100 % of control.
